Results taken from patent US20200038513A1, “MODULATORS OF FAK PROTEOLYSIS AND ASSOCIATED METHODS OF USE” (ARVINAS OPERATIONS, INC., priority 2018, published 2020).
Where two headings read alike, the source gives them in different places.

How the values were obtained:
PPB = assay type: in vitro ADME; details: plasma
[1] = Pharmacokinetics of intraperitoneal or intravenous injection in CD1 mice; assay type: in vivo; details: for concentration at 0.25 h / concentration at 0.5 h / concentration at 1 h / concentration at 2 h / concentration at 4 h / concentration at 8 h / concentration at 24 h / AUC(0-t) / half-life / concentration at 0.033 h / concentration at 0.083 h: male, CD1, mouse, plasma
Procedure: The pharmacokinetics of exemplary compounds 103, 107, 100, 101, and 102 was examined for intraperitoneal and intravenous administration. The desired serial concentrations of working solutions were achieved by diluting stock solution (1 mg/mL in DMSO) of analyte with methanol. In particular, 20 μL of working solutions (1, 2, 5, 10, 50, 100, 500, 1000, 2000 ng/mL) were added to 20 μL of the blank CD1 mice plasma to achieve calibration standards of 1-2000 ng/mL (1, 2, 5, 10, 50, 100, 500, 1000, 2000 ng/mL) in a total volume of 40 μL. Dose of IV and IP were diluted by 1000 fold and 10000 with methanol, 20 μL of the diluted dose solutions were added to 20 μL of the blank CD1 mice plasma to achieve dose samples. Next, 40 μL standards and 40 μL dose samples were added to 20 μL of IS (100 ng/mL) and 200 μL of acetonitrile for precipitating protein respectively. Then the samples were vortexed for 30 seconds. After centrifugation at 4 degree Celsius, 4000 rpm for 15 minutes, the supernatant was diluted 3 times with water. 10 μL of the diluted supernatant was injected into the LC/MS/MS system for quantitative analysis.
Exemplary compounds 103, 107, 100, 101, and 102 were administered intravenously (5 second injection of 10% HP-b-CD and 40 mM sodium acetate and 40 mM NaCl in water, pH4.5) or intraperitoneally (5% EtOH and 5% Solutol HS15 in D5W(ESD-2)) to 6-8 week old male CD1 mice (3 mice per treatment group for a total of 12 mice) at the time points indicated below in Table 7. The mice had free access to food and water.
Dorsal metatarsal vein samples (30 μL), except that the final sample was acquired via a heart puncture, were taken from the mice at the same the administration time points as shown in Table 7.

[2] = IV 1.0 mg/kg, CD1 mice plasma, 24 h
[3] = ip, 10 mg/kg, IP 10 mg/kg, CD1 mice plasma, read-out: Conc. (ng/mL) Mouse 1
[4] = ip, 10 mg/kg, IP 10 mg/kg, CD1 mice plasma, read-out: Conc. (ng/mL) Mouse 2
[5] = ip, 10 mg/kg, IP 10 mg/kg, CD1 mice plasma, read-out: Conc. (ng/mL) Mouse 3
[6] = ip, 10 mg/kg, IP 10 mg/kg, CD1 mice plasma, read-out: Mean
[7] = iv, 1 mg/kg, IV 1.0 mg/kg, CD1 mice plasma, read-out: Conc. (ng/mL) Mouse 1
[8] = iv, 1 mg/kg, IV 1.0 mg/kg, CD1 mice plasma, read-out: Conc. (ng/mL) Mouse 2
[9] = iv, 1 mg/kg, IV 1.0 mg/kg, CD1 mice plasma, read-out: Conc. (ng/mL) Mouse 3
[10] = iv, 1 mg/kg, IV 1.0 mg/kg, CD1 mice plasma, read-out: Mean

SMILES: Cc1ncsc1-c1ccc(CNC(=O)[C@@H]2C[C@@H](O)CN2C(=O)[C@@H](NC(=O)CCOCCCOc2ccc(Nc3ncc(C(F)(F)F)c(NCc4cccc(N(C)S(C)(=O)=O)c4)n3)cc2)C(C)(C)C)cc1 [Compound 103, (2S,4R)-1-((S)-3,3-dimethyl-2-(3-(3-(4-((4-((3-(N-methylmethylsulfonamido)benzyl)amino)-5-(trifluoromethyl)pyrimidin-2-yl)amino)phenoxy)propoxy)propanamido)butanoyl)-4-hydroxy-N-(4-(4-methylthiazol-5-yl)benzyl)pyrrolidine-2-carboxamide]
- fraction unbound (PPB): 0.0022
- Conc. (ng/mL) Mouse 2 ([1]; IP 10 mg/kg, CD1 mice plasma, 24 h): BLOQ
- Conc. (ng/mL) Mouse 1 [1, 2]: BLOQ
- Conc. (ng/mL) Mouse 2 [1, 2]: BLOQ
- Conc. (ng/mL) Mouse 3 [1, 2]: BLOQ
- concentration at 0.25 h [1, 3]: 877 ng/mL
- concentration at 0.25 h [1, 4]: 494 ng/mL
- concentration at 0.25 h [1, 5]: 562 ng/mL
- concentration at 0.25 h [1, 6]: 645 ng/mL
- concentration at 0.5 h [1, 3]: 842 ng/mL
- concentration at 0.5 h [1, 4]: 639 ng/mL
- concentration at 0.5 h [1, 5]: 608 ng/mL
- concentration at 0.5 h [1, 6]: 696 ng/mL
- concentration at 1 h [1, 3]: 2010 ng/mL
- concentration at 1 h [1, 4]: 2460 ng/mL
- concentration at 1 h [1, 5]: 1230 ng/mL
- concentration at 1 h [1, 6]: 1900 ng/mL
- concentration at 2 h [1, 3]: 2130 ng/mL
- concentration at 2 h [1, 4]: 3300 ng/mL
- concentration at 2 h [1, 5]: 826 ng/mL
- concentration at 2 h [1, 6]: 2090 ng/mL
- concentration at 4 h [1, 3]: 1260 ng/mL
- concentration at 4 h [1, 4]: 1210 ng/mL
- concentration at 4 h [1, 5]: 768 ng/mL
- concentration at 4 h [1, 6]: 1080 ng/mL
- concentration at 8 h [1, 3]: 321 ng/mL
- concentration at 8 h [1, 4]: 68.5 ng/mL
- concentration at 8 h [1, 5]: 306 ng/mL
- concentration at 8 h [1, 6]: 232 ng/mL
- concentration at 24 h ([1]; ip, 10 mg/kg, IP 10 mg/kg, CD1 mice plasma, 24 h, read-out: Conc. (ng/mL) Mouse 1): 0.824 ng/mL
- concentration at 24 h ([1]; ip, 10 mg/kg, IP 10 mg/kg, CD1 mice plasma, 24 h, read-out: Conc. (ng/mL) Mouse 3): 4.5 ng/mL
- concentration at 24 h ([1]; ip, 10 mg/kg, IP 10 mg/kg, CD1 mice plasma, 24 h, read-out: Mean): 2.66 ng/mL
- AUC(0-t) ([1]; ip, 10 mg/kg, read-out: AUClast (h * ng/mL) IP): 10400 ng·h/mL
- half-life ([1]; ip, 10 mg/kg, read-out: T ½ (h) IP (converted)): 1.87 h
- concentration at 0.033 h [1, 7]: 4370 ng/mL
- concentration at 0.033 h [1, 8]: 3940 ng/mL
- concentration at 0.033 h [1, 9]: 4020 ng/mL
- concentration at 0.033 h [1, 10]: 4110 ng/mL
- concentration at 0.083 h [1, 7]: 1660 ng/mL
- concentration at 0.083 h [1, 8]: 1730 ng/mL
- concentration at 0.083 h [1, 9]: 1820 ng/mL
- concentration at 0.083 h [1, 10]: 1740 ng/mL
- concentration at 0.25 h [1, 7]: 376 ng/mL
- concentration at 0.25 h [1, 8]: 382 ng/mL
- concentration at 0.25 h [1, 9]: 395 ng/mL
- concentration at 0.25 h [1, 10]: 384 ng/mL
- concentration at 0.5 h [1, 7]: 140 ng/mL
- concentration at 0.5 h [1, 8]: 132 ng/mL
- concentration at 0.5 h [1, 9]: 135 ng/mL
- concentration at 0.5 h [1, 10]: 136 ng/mL
- concentration at 1 h [1, 7]: 52.1 ng/mL
- concentration at 1 h [1, 8]: 58.8 ng/mL
- concentration at 1 h [1, 9]: 57.5 ng/mL
- concentration at 1 h [1, 10]: 56.2 ng/mL
- concentration at 2 h [1, 7]: 36.1 ng/mL
- concentration at 2 h [1, 8]: 27.7 ng/mL
- concentration at 2 h [1, 9]: 32.1 ng/mL
- concentration at 2 h [1, 10]: 32 ng/mL
- concentration at 4 h [1, 7]: 10.8 ng/mL
- concentration at 4 h [1, 8]: 12.9 ng/mL
- concentration at 4 h [1, 9]: 13 ng/mL
- concentration at 4 h [1, 10]: 12.3 ng/mL
- concentration at 8 h [1, 7]: 2.33 ng/mL
- concentration at 8 h [1, 8]: 8.35 ng/mL
- concentration at 8 h [1, 9]: 4.11 ng/mL
- concentration at 8 h [1, 10]: 4.93 ng/mL
- AUC(0-t) ([1]; iv, 1 mg/kg, read-out: AUClast (h * ng/mL) IV): 747 ng·h/mL
- half-life ([1]; iv, 1 mg/kg, read-out: T ½ (h) IV (converted)): 2.44 h
